# Experimental data published in US20110306606A1, “NOVEL 2,6-SUBSTITUTED-3-NITROPYRIDINE DERIVATIVE, METHOD FOR PREPARING SAME, AND PHARMACEUTICAL COMPOSITION INCLUDING SAME” (priority 2008, published 2011).
# Tested on: Osteoblasts (Calvarial cells)
# Experiment: not given
# Conditions: ICR, mouse, 72 h, 1 μM
row,SMILES,Cell viability (%) Calvarial cell
1,"CNc1ccc([N+](=O)[O-])c(Nc2ccc(C)cc2)n1 [Compound 1, 2-(4-methylphenylamino)-6-(methylamino)-3-nitropyridine]",106%
2,"Cc1ccc(Nc2nc(NC(C)C)ccc2[N+](=O)[O-])cc1 [Compound 2, 2-(4-methylphenylamino)-6-(isopropylamino)-3-nitropyridine]",104%
3,"Cc1ccc(Nc2nc(NCC(C)C)ccc2[N+](=O)[O-])cc1 [Compound 3, 2-(4-methylphenylamino)-6-(isobutylamino)-3-nitropyridine]",102%
4,"Cc1ccc(Nc2nc(N3CCC(O)CC3)ccc2[N+](=O)[O-])cc1 [Compound 5, 2-(4-methylphenylamino)-6-(4-hydroxypiperidino)-3-nitropyridine]",96%
5,"Cc1ccc(Nc2nc(N3CCN(C)CC3)ccc2[N+](=O)[O-])cc1 [Compound 11, 2-(4-methylphenylamino)-6-(4-methylpiperazin-1-yl)-3-nitropyridine]",103%
6,"CNc1ccc([N+](=O)[O-])c(Nc2ccc(OC)cc2)n1 [Compound 15, 2-(4-methoxyphenylamino)-6-(methylamino)-3-nitropyridine]",100%
7,"COc1ccc(Nc2nc(NCC(C)C)ccc2[N+](=O)[O-])cc1 [Compound 17, 2-(4-methoxyphenylamino)-6-(isobutylamino)-3-nitropyridine]",96%
8,"COc1ccc(Nc2nc(N3CCC(O)CC3)ccc2[N+](=O)[O-])cc1 [Compound 19, 2-(4-methoxyphenylamino)-6-(4-hydroxypiperidino)-3-nitropyridine]",94%
9,"COc1ccc(Nc2nc(NC(C)(C)C)ccc2[N+](=O)[O-])cc1 [Compound 23, 2-(4-methoxyphenylamino)-6-(t-butylamino)-3-nitropyridine]",90%
10,"COc1ccc(Nc2nc(N3CCN(C)CC3)ccc2[N+](=O)[O-])cc1 [Compound 26, 2-(4-methoxyphenylamino)-6-(4-methylpiperazin-1-yl)-3-nitropyridine]",90%
11,"COc1ccc(Nc2nc(N3CCNCC3)ccc2[N+](=O)[O-])cc1 [Compound 27, 2-(4-methoxyphenylamino)-6-(piperazin-1-yl)-3-nitropyridine]",97%
12,"COc1ccc(Nc2nc(N3CCOCC3)ccc2[N+](=O)[O-])cc1 [Compound 29, 2-(4-methoxyphenylamino)-6-morpholino-3-nitropyridine]",93%
13,"CNc1ccc([N+](=O)[O-])c(Nc2ccc(C(C)(C)C)cc2)n1 [Compound 30, 2-[4-(t-butyl)phenylamino]-6-(methylamino)-3-nitropyridine]",90%
14,"CC(C)CNc1ccc([N+](=O)[O-])c(Nc2ccc(C(C)(C)C)cc2)n1 [Compound 32, 2-[4-(t-butyl)phenylamino]-6-(isobutylamino)-3-nitropyridine]",91%
15,"CC(C)(C)c1ccc(Nc2nc(N3CCC(O)CC3)ccc2[N+](=O)[O-])cc1 [Compound 34, 2-[4-(t-butyl)phenylamino]-6-(4-hydroxypiperidino)-3-nitropyridine]",97%
16,"CC(C)c1nccn1-c1ccc([N+](=O)[O-])c(Nc2ccc(C(C)(C)C)cc2)n1 [Compound 36, 2-[4-(t-butyl)phenylamino]-6-[(2-isopropyl)imidazol-1-yl]-3-nitropyridine]",118%
17,"CC(C)(C)c1ccc(Nc2nc(NCc3cccnc3)ccc2[N+](=O)[O-])cc1 [Compound 37, 2-[4-(t-butyl)phenylamino]-6-[(3-pyridyl)methylamino]-3-nitropyridine]",104%
18,"CC(C)(C)c1ccc(Nc2nc(NCc3ccncc3)ccc2[N+](=O)[O-])cc1 [Compound 38, 2-[4-(t-butyl)phenylamino]-6-[(4-pyridyl)methylamino]-3-nitropyridine]",96%

# Tested on: Osteoblasts (Calvarial cells)
# Experiment: Cytotoxicity test (MTT)
# Conditions: 1 μM compound, 72 hours, in comparison with vehicle control
row,SMILES,Cell viability (%) Calvarial cell
1,"NC(=O)C1CCCN(c2ccc(Nc3nc(N4CCNCC4)ccc3[N+](=O)[O-])cc2F)C1 (centres unmarked) [Compound 306, 2-{[3-fluoro-4-(3-carbamoylpiperidino)]phenylamino}-6-(piperazin-1-yl)-3-nitropyridine]",122%
2,"CN1CCN(c2ccc([N+](=O)[O-])c(Nc3ccc(N4CCCC(C(N)=O)C4)c(F)c3)n2)CC1 (centres unmarked) [Compound 307, 2-{[3-fluoro-4-(3-carbamoylpiperidino)]phenylamino}-6-(4-methylpiperazin-1-yl)-3-nitropyridine]",131%
3,"NC(=O)C1CCCN(c2ccc(Nc3nc(N4CCOCC4)ccc3[N+](=O)[O-])cc2F)C1 (centres unmarked) [Compound 308, 2-{[3-fluoro-4-(3-carbamoylpiperidino)]phenylamino}-6-morpholino-3-nitropyridine]",109%
4,"NC(=O)C1CCCN(c2ccc(Nc3nc(N4CCC(N)CC4)ccc3[N+](=O)[O-])cc2F)C1 (centres unmarked) [Compound 309, 2-{[3-fluoro-4-(3-carbamoylpiperidino)]phenylamino}-6-(4-aminopiperidino)-3-nitropyridine]",110%
5,"NC(=O)C1CCCN(c2ccc(Nc3nc(NCc4cccnc4)ccc3[N+](=O)[O-])cc2F)C1 (centres unmarked) [Compound 310, 2-{[3-fluoro-4-(3-carbamoylpiperidino)]phenylamino}-6-[(3-pyridyl)methylamino]-3-nitropyridine]",97%
6,"NC(=O)C1CCCN(c2ccc(Nc3nc(NCc4ccncc4)ccc3[N+](=O)[O-])cc2F)C1 (centres unmarked) [Compound 311, 2-{[3-fluoro-4-(3-carbamoylpiperidino)]phenylamino}-6-[(4-pyridyl)methylamino]-3-nitropyridine]",98%
7,"NC(=O)C1CCCN(c2ccc(Nc3nc(NCCCn4ccnc4)ccc3[N+](=O)[O-])cc2F)C1 (centres unmarked) [Compound 312, 2-{[3-fluoro-4-(3-carbamoylpiperidino)]phenylamino}-6-[(3-imidazol-1-yl)propylamino]-3-nitropyridine]",98%
8,"NC(=O)C1CCCN(c2ccc(Nc3nc(NCCN4CCOCC4)ccc3[N+](=O)[O-])cc2F)C1 (centres unmarked) [Compound 313, 2-{[3-fluoro-4-(3-carbamoylpiperidino)]phenylamino}-6-[2-(morpholin-1-yl)ethylamino]-3-nitropyridine]",106%
9,"NC(=O)C1CCCN(c2ccc(Nc3nc(NCCCN4CCOCC4)ccc3[N+](=O)[O-])cc2F)C1 (centres unmarked) [Compound 314, 2-{[3-fluoro-4-(3-carbamoylpiperidino)]phenylamino}-6-[(3-morpholin-1-yl)propylamino]-3-nitropyridine]",103%
10,"CCN(CC)c1ccc([N+](=O)[O-])c(Nc2ccc(N3CCCC(C(N)=O)C3)c(F)c2)n1 (centres unmarked) [Compound 315, 2-{[3-fluoro-4-(3-carbamoylpiperidino)]phenylamino}-6-(diethylamino)-3-nitropyridine]",104%
11,"CNc1ccc([N+](=O)[O-])c(Nc2ccc(N3CCC(C(=O)O)CC3)c(F)c2)n1 [Compound 316, 2-{[3-fluoro-4-(4-carboxylicpiperidino)]phenylamino}-6-(methylamino)-3-nitropyridine]",95%
12,"CC(C)Nc1ccc([N+](=O)[O-])c(Nc2ccc(N3CCC(C(=O)O)CC3)c(F)c2)n1 [Compound 317, 2-{[3-fluoro-4-(4-carboxylicpiperidino)]phenylamino}-6-(isopropylamino)-3-nitropyridine]",99%
13,"CC(C)CNc1ccc([N+](=O)[O-])c(Nc2ccc(N3CCC(C(=O)O)CC3)c(F)c2)n1 [Compound 318, 2-{[3-fluoro-4-(4-carboxylicpiperidino)]phenylamino}-6-(isobutylamino)-3-nitropyridine]",103%
14,"O=C(O)C1CCN(c2ccc(Nc3nc(N4CCC(O)CC4)ccc3[N+](=O)[O-])cc2F)CC1 [Compound 319, 2-{[3-fluoro-4-(4-carboxylicpiperidino)]phenylamino}-6-(4-hydroxypiperidino)-3-nitropyridine]",112%
15,"CN1CCN(c2ccc([N+](=O)[O-])c(Nc3ccc(N4CCC(C(=O)O)CC4)c(F)c3)n2)CC1 [Compound 320, 2-{[3-fluoro-4-(4-carboxylicpiperidino)]phenylamino}-6-(4-methylpiperazin-1-yl)-3-nitropyridine]",101%
16,"O=C(O)C1CCN(c2ccc(Nc3nc(NCc4cccnc4)ccc3[N+](=O)[O-])cc2F)CC1 [Compound 321, 2-{[3-fluoro-4-(4-carboxylicpiperidino)]phenylamino}-6-[(3-pyridyl)methylamino]-3-nitropyridine]",101%
17,"O=C(O)C1CCN(c2ccc(Nc3nc(NCc4ccncc4)ccc3[N+](=O)[O-])cc2F)CC1 [Compound 322, 2-{[3-fluoro-4-(4-carboxylicpiperidino)]phenylamino}-6-[(4-pyridyl)methylamino]-3-nitropyridine]",106%
18,"O=C(O)C1CCN(c2ccc(Nc3nc(NCCCn4ccnc4)ccc3[N+](=O)[O-])cc2F)CC1 [Compound 323, 2-{[3-fluoro-4-(4-carboxylicpiperidino)]phenylamino}-6-[(3-imidazol-1-yl)propylamino]-3-nitropyridine]",105%
19,"O=C(O)C1CCN(c2ccc(Nc3nc(NCCN4CCOCC4)ccc3[N+](=O)[O-])cc2F)CC1 [Compound 324, 2-{[3-fluoro-4-(4-carboxylicpiperidino)]phenylamino}-6-[2-(morpholin-1-yl)ethylamino]-3-nitropyridine]",82%
20,"O=C(O)C1CCN(c2ccc(Nc3nc(NCCCN4CCOCC4)ccc3[N+](=O)[O-])cc2F)CC1 [Compound 325, 2-{[3-fluoro-4-(4-carboxylicpiperidino)]phenylamino}-6-[(3-morpholin-1-yl)propylamino]-3-nitropyridine]",106%
